# Experimental data reported in US7345026B2, “Hybrid or chimeric polynucleotides, proteins, and compositions comprising hepatitis B virus sequences” (Institut Pasteur, priority 1999, dated 2008).
# “And” between values parts separate entries of the source, which are not always exact repeats. Equal entries are not always repeated. “Also recorded” adds a separate entry of the source.
# Test system: HHD-transfected RMAS cells loaded with relevant peptides
# Design: species or system HHD mice
# Details: mouse, in vivo
row,Sequence,CTL responses (in words)
1,YLEPGPVTA [gp100.280],Some responses of weak to strong magnitude
2,YMDGTMSQV [Tyrosinase.368-D],Some responses of weak to strong magnitude

# Test system: HHD-transfected RMAS cells loaded with relevant peptides
# Design: species or system HHD mice
# Details: mouse, in vivo
# Remark: another data set of the same source
row,Sequence,CTL responses (in words)
1,YLEPGPVTA [gp100.280],Some responses of weak to strong magnitude

# Test system: HHD-transfected RMAS cells loaded with relevant peptides
# Design: species or system HHD mice
# Details: mouse, in vivo, iv
Sequence,lysis in % (highest specific lysis),lysis in % following a second in vitro restimulation (numbers in parentheses)
VLPDVFIRC (listed as Homo sapiens) [NA17-A.nt38],0 (6) % and 3 (5) % and 5 (24) % and 3 (9) % and 6 (7) % and 0 (2) %,0 (6) % and 3 (5) % and 5 (24) % and 3 (9) % and 6 (7) % and 0 (2) %
YLEPGPVTA [gp100.280],0 (1) % and 0 (0) %,0 (1) % and 0 (0) %
YLSGANLNL (listed as Homo sapiens) [CEA.571],4 (1) % and 1 (5) % and 1 (2) % and 0 (0) % and 2 (0) % and 4 (22) %,4 (1) % and 1 (5) % and 1 (2) % and 0 (0) % and 2 (0) % and 4 (22) %

# Target: HLA-A2.1 molecules (Homo sapiens, UniProt P04439, D140Y/D185E/D98H/E176V/E277Q/G131W/G231S/I119V/I121R/I166T/I218V/L300P/L318F/N151K/N90K/P208A/P217A/Q86G/Q94H/R138H/R169H/T345S)
# Details: not given
row,Sequence,RA (relative affinity)
1,YMNGTMSOV (YMNGTMSV; listed as Homo sapiens) [Tyrosinase.368-N],2.2

# Test system: HHD-transfected RMA-S cells loaded with relevant peptides
# Design: species or system HHD mice
# Details: in vivo, sc
row,Sequence,lysis in % (maximal lysis observed for each responder mouse)
1,IISAVVGIL (listed as Homo sapiens) [Her2/neu.654],(42) %
2,ITDQVPFSV [gp100.209],(23) %
3,VLYRYGSFSV (listed as Homo sapiens) [gp100.476],"(54, 70) %"
4,YMDGTMSQV [Tyrosinase.368-D],(10) %

# Same assay, conditions: mouse, in vivo
row,Sequence,CTL inducer hierarchy (in words)
1,IISAVVGIL (listed as Homo sapiens) [Her2/neu.654],weak
2,ILTVILGVL (listed as Homo sapiens) [Melan-A/MART-1.32],inefficient
3,ITDQVPFSV [gp100.209],weak
4,KTWGQYWQV [gp100.154],strong
5,LLDGTATLRL [gp100.457],inefficient
6,LLGRNSFEV (listed as Homo sapiens) [p53.264],inefficient; also recorded: poor CTL-induction capacity
7,MLLAVLYCL (listed as Homo sapiens) [Tyrosinase.1],inefficient
8,RMPEAAPPV (listed as Homo sapiens) [p53.65],intermediate
9,STPPPGTRV (listed as Homo sapiens) [p53.149],inefficient
10,TLGIVCPI (listed as Homo sapiens) [HPV E7.86],inefficient
11,VLPDVFIRC (listed as Homo sapiens) [NA17-A.nt38],intermediate
12,VLYRYGSFSV (listed as Homo sapiens) [gp100.476],weak
13,YLEPGPVTA [gp100.280],weak
14,YLSGANLNL (listed as Homo sapiens) [CEA.571],strong
15,YMDGTMSQV [Tyrosinase.368-D],weak
16,YMNGTMSOV (YMNGTMSV; listed as Homo sapiens) [Tyrosinase.368-N],intermediate

# Same assay, conditions: mouse, in vivo, sc
row,Sequence,R/T (responder versus tested mice)
1,YMNGTMSOV (YMNGTMSV; listed as Homo sapiens) [Tyrosinase.368-N],4/15

# Test system: peptide-loaded HHD-transfected RMA-S cells
# Design: species or system HHD mice
# Details: mouse, in vivo
row,Sequence,CTL response against the epitope after polyepitope immunization (in words)
1,ILTVILGVL (listed as Homo sapiens) [Melan-A/MART-1.32],No specific lysis; also recorded: did not elicit CTL responses
2,KTWGQYWQV [gp100.154],Strong responses
3,LLDGTATLRL [gp100.457],Significant responses
4,MLLAVLYCL (listed as Homo sapiens) [Tyrosinase.1],No specific lysis; also recorded: did not elicit CTL responses
5,VLPDVFIRC (listed as Homo sapiens) [NA17-A.nt38],Strong responses
6,VLYRYGSFSV (listed as Homo sapiens) [gp100.476],did not elicit CTL responses
7,YLEPGPVTA [gp100.280],No specific lysis; also recorded: did not elicit CTL responses
8,YMDGTMSQV [Tyrosinase.368-D],elicited CTL responses depending on mice

# Test system: HHD-transfected RMA-S target cells loaded with relevant peptides
# Design: species or system HHD mice
# Details: mouse, in vivo
Sequence,lysis in %,CTL response when co-injected with helper peptide (in words)
ITDQVPFSV [gp100.209],"(31, 36, 56) %",
KTWGQYWQV [gp100.154],"(43, 59, 60, 64, 77. 77, 80, 82, 85) %",stronger responses in a larger proportion of mice
LLDGTATLRL [gp100.457],"(14, 35, 43, 77, 79) %",good CTL responses in a large proportion of mice; also recorded: strong CTL-inducers when associated with a helper peptide
LLGRNSFEV (listed as Homo sapiens) [p53.264],"(37, 64) %",
MLLAVLYCL (listed as Homo sapiens) [Tyrosinase.1],"(27, 33, 40, 42, 51) %",good CTL responses in a large proportion of mice
RMPEAAPPV (listed as Homo sapiens) [p53.65],"(29, 31, 40, 41, 55) %",stronger responses in a larger proportion of mice
STPPPGTRV (listed as Homo sapiens) [p53.149],"(20, 51, 71) %",
TLGIVCPI (listed as Homo sapiens) [HPV E7.86],"(34, 48) %",
VLPDVFIRC (listed as Homo sapiens) [NA17-A.nt38],"(36, 39, 61,64, 71) %",stronger responses in a larger proportion of mice
VLYRYGSFSV (listed as Homo sapiens) [gp100.476],"(20, 22, 59, 63, 75, 79) %",
YLEPGPVTA [gp100.280],"(12, 16) %",
YLSGANLNL (listed as Homo sapiens) [CEA.571],"(20, 32, 46) %",less immunogenic
YMDGTMSQV [Tyrosinase.368-D],"(13, 15) %",
YMNGTMSOV (YMNGTMSV; listed as Homo sapiens) [Tyrosinase.368-N],"(21, 36, 70, 72, 78) %",

# Same assay, conditions: mouse, in vivo, sc
row,Sequence,R/T (responder versus tested mice)
1,YMNGTMSOV (YMNGTMSV; listed as Homo sapiens) [Tyrosinase.368-N],5/12

# Test system: HHD-transfected RMA-S cells loaded with relevant peptides
# Design: species or system A2A2Kb mice
# Details: in vivo, sc
# Remark: another data set of the same source
row,Sequence,lysis in % (maximal lysis observed for each responder mouse)
1,TLGIVCPI (listed as Homo sapiens) [HPV E7.86],"(10, 13) %"
2,VLYRYGSFSV (listed as Homo sapiens) [gp100.476],(29) %

# Same assay, conditions: mouse, in vivo, sc
row,Sequence,R/T (responder versus tested mice)
1,YMNGTMSOV (YMNGTMSV; listed as Homo sapiens) [Tyrosinase.368-N],0/6
